In paper PMC9695642, “Conservation of Importin α Function in Apicomplexans: Ivermectin and GW5074 Target Plasmodium falciparum Importin α and Inhibit Parasite Growth in Culture” (International Journal of Molecular Sciences, 2022):
Several values for one entry are separate records, joined by “and”; a condition that tells them apart may be missing. Identical values can stand only once. Like-named read-outs stand apart in the source and are kept apart here.

Legend:
PfIMPα [1] = target: T1, PfIMPα (Plasmodium falciparum, UniProt Q8IAW0); assay: AlphaScreen inhibition of PfIMPα binding to TGS1-NLS-GFP
Excerpt: (§1) Inhibitors of mammalian IMPα function are of key interest as anti-infectious agents. One of the first described is the small molecule macrocyclic lactone ivermectin, produced by the bacterium Streptomyces avermitilis, that is approved by the US Food and Drug Administration for parasitic infections. […] Chemically distinct from ivermectin, GW5074 (3-(3,5-dibromo-4-hydroxybenzyliden)-5-iodo-1,3-dihydroindol-2-one) binds to mammalian IMPα with analogous structural effects on IMPα and inhibitory effects on NLS recognition/IMPβ1 binding by IMPα [24]. […] We set out to test the activity of these inhibitors with respect to NLS binding by PfIMPα and TgIMPα, with NLS binding by MmIMPα analysed in parallel (Figure 3; Table 3). As expected, ivermectin and GW5074 inhibited MmΔIBBIMPα-SV40 T-ag with IC50 values of 5–6 µM, consistent with published data. […] The results clearly indicate that chemical inhibitors known to target mammalian IMPα can inhibit apicomplexan IMPα, underlining the structural and functional conservation of IMPα from apicomplexans to mammalian systems.
(§2) Figure 3 Ivermectin and GW5074 inhibit IMPα-NLS interaction at low micromolar concentration. AlphaScreen technology was used to determine the IC50 for inhibition by ivermectin and GW5074 binding of IMPαs (5 nM) to NLS (30 nM). Data represent the mean ± SEM for quadruplet wells from a single experiment, from a series of 3 independent experiments (see Table 3 for pooled data).
(§3) PfIMPα, TgIMPα, MmIMPα, ΔIBBMmIMPα, and MmIMPβ1 GST fusion proteins were expressed and purified essentially as previously. His-tagged T-ag-NLS-GFP, TGS1-NLS-GFP, GCN5-NLS-GFP, PfIMPα, and TgIMPα proteins were all purified using Ni^2+-affinity chromatography, as previously. Biotinylation of GST-tagged proteins was carried out using the Sulfo-NHS-Biotin reagent (Pierce, Rockford, IL, USA), as described previously. The AlphaScreen binding assay was performed as previously.

TgIMPα = TgIMPα (Toxoplasma gondii, UniProt A0A125YID0); assay: AlphaScreen inhibition of TgIMPα binding to T-ag-NLS-GFP
Excerpt: as §1, §2, §3

MmΔIBBIMPα = target: T2, MmΔIBBIMPα (Mus musculus, UniProt P52293); assay: AlphaScreen inhibition of MmΔIBBIMPα binding to T-ag-NLS-GFP
T2 construct: GST; made in house
Excerpt: as §1, §2, §3

PfIMPα:MmIMPβ1 = PfIMPα:MmIMPβ1 (Plasmodium falciparum, UniProt Q8IAW0); assay: AlphaScreen inhibition of PfIMPα binding to MmIMPβ1
Excerpt: (§4) As indicated, both ivermectin and GW5074 have been previously shown to inhibit interaction between mammalian IMPα and IMPβ1 [24, 32]. We tested their activity towards apicomplexan IMPα (Figure 4; Table 4). As previously observed, binding of MmIMPα:MmIMPβ1 was inhibited strongly by both agents, with IC50 values of c. […] Clearly, ivermectin and GW5074 are able to act on apicomplexan IMPα in analogous fashion to MmIMPα in terms of the ability to bind to IMPβ1, the results further underlining the structural and functional conservation of IMPα from apicomplexans to mammalian systems.
(§5) Figure 4 Ivermectin and GW5074 inhibit IMPα–IMPβ interaction. AlphaScreen technology was used to determine the IC50 for inhibition by ivermectin and GW5074-binding of IMPβ (30 nM) to IMPαs (30 nM). Data represent the mean ± SEM for quadruplet wells from a single experiment, from a series of three independent experiments (see Table 4 for pooled data).
as §3

TgIMPα:MmIMPβ1 = TgIMPα:MmIMPβ1 (Toxoplasma gondii, UniProt A0A125YID0); assay: AlphaScreen inhibition of TgIMPα binding to MmIMPβ1
Excerpt: as §4, §5, §3

MmIMPα:MmIMPβ1 = target: T3, MmIMPα:MmIMPβ1 (Mus musculus, UniProt P52293); assay: AlphaScreen inhibition of MmIMPα binding to MmIMPβ1
T3 construct: His; made in house
Excerpt: as §4, §5, §3

PfIMPα [2] = target: T1, PfIMPα; assay: Far-UV CD spectroscopy, α-helical content of PfIMPα with compound; assay type: binding; conditions: PfIMPα alone c. 63 % α-helical
Procedure: Previous analysis for MmIMPα using several biophysical approaches had established that the mechanism by which both ivermectin and GW5074 have an impact on NLS and IMPβ1 binding by MmIMPα is by direct binding to the ARM repeat domain of IMPα to perturb structural conformation. […] 63 % α-helical, compared to c. 70 % for MmIMPα (Figure 5b).
CD spectra were also analysed in the presence of increasing concentrations of ivermectin and GW5074, with both agents having a marked impact on the structure, especially at high concentrations (Figure 5a,b), consistent with the idea that both bind to the proteins directly to perturb structure. PfIMPα appeared to be particularly susceptible to both agents, with 30 µM GW5074 reducing α-helicity by more than a half (Figure 5a,b) to a residual value of 30%, which fell below 10% in the presence of 80 µM GW5074. […] 20% at 80 µM. The results, overall, indicate that both ivermectin and GW5074 can bind to and destabilise the structure of both PfIMPα and TgIMPα in analogous fashion to their known effects on mammalian IMPα, further underlining the conservation of structure and function between apicomplexan and mammalian IMPαs.
Figure 5 CD spectra for apicomplexan and mammalian IMPαs in the absence and presence of ivermectin and GW5074. CD spectra were collected for PfIMPα, TgIMPα, and MmIMPα in the absence or presence of 30 μM and 80 μM ivermectin and GW5074. (a) Spectra shown are from a single experiment, representative of two independent experiments for 30 μM concentration of ivermectin and GW5074. Note: θ is ellipticity. […]
CD spectroscopy was used to study the binding of ivermectin and GW5074 to PfIMPα, TgIMPα and MmIMPα, as previously described. CD spectra of the proteins at 0.1 mg/mL concentration were recorded from 200–260 nm using Jasco CD spectrometer (Jasco, Portland, OR, USA). CD spectra of the IMPαs were also measured in the presence of 30 µM and 80 µM concentrations of the ivermectin and GW5074 compounds. Percentage α-helix content was calculated from the ellipticity at 222 nm as described in [51]. […]

P. falciparum 3D7 strain = assay: P. falciparum growth inhibition, HRP2-based sandwich ELISA; assay type: cell-based, Plasmodium falciparum; conditions: 72 h
Excerpt: To test the potential antimalarial action of GW5074, we compared the activity of GW5074 to ivermectin against the asexual stages of P. falciparum parasites, using an established HRP2-based (histidine-rich protein 2) ELISA [38, 39, 40]. The assay uses a sandwich ELISA to measure HRP2 levels as an indicator of parasite growth; the clinically prescribed drug dihydroartemisinin (DHA) was used as a positive control.
Figure 6 Ivermectin and GW5074 inhibit P. falciparum parasites in culture at low µM concentrations. P. falciparum cultures (0.25% parasitemia) were treated with increasing concentrations of the indicated compounds for 72 h, after which the HRP2-based sandwich ELISA was used to measure the HRP2 levels, determined by optical density. The results shown are from a single typical experiment performed in duplicate (SD shown), representative of a series of three independent experiments (see Table 5 for pooled data).
P. falciparum 3D7 strain was cultured and maintained in human red blood cells (RBCs) using RPMI (Roswell Park Memorial Institute) 1640 medium supplemented with 0.5% Albumax (GibcoTM, Waltham, MA, USA), 50 mg/L hypoxanthine (Sigma-Aldrich, St. Louis, MO, USA), 2 g/L D-glucose (Sigma-Aldrich, St. Louis, MO, USA), 2 g/L sodium bicarbonate (Sigma-Aldrich, St. Louis, MO, USA), and 56 mg/L of gentamicin (Abbott, Chicago, IL, USA) at 37 °C in 5% CO2 in a humidified incubator, according to the standard procedures. Cultures presynchronised using 5% D-sorbitol (Sigma-Aldrich, St. Louis, MO, USA) to obtain predominantly the ring stage of the P. falciparum life cycle were used for the growth assays, as previously. DHA (a gift from IPCA Laboratories, Mumbai, India) was used as a control. Growth assays in the absence and presence of inhibitors were performed using the HRP2 sandwich horseradish peroxidase-linked immunosorbent assay that measures HRP2 levels as an indicator of growth.

[3] = AlphaScreen, IMPα 5 nM, NLS 30 nM, pooled mean ± SEM (n = 3), read-out: IC50, inhibition of PfIMPα:TGS1 NLS binding
[4] = single experiment of a series of 3, read-out: IC50, PfIMPα:TGS1-NLS-GFP (Figure 3)
[5] = AlphaScreen, IMPα 5 nM, NLS 30 nM, pooled mean ± SEM (n = 3), read-out: IC50, inhibition of TgIMPα:SV40 T-ag NLS binding
[6] = single experiment of a series of 3, read-out: IC50, TgIMPα:T-ag-NLS-GFP (Figure 3)
[7] = AlphaScreen, IMPα 5 nM, NLS 30 nM, pooled mean ± SEM (n = 3), read-out: IC50, inhibition of ΔIBBmIMPα:SV40 T-ag NLS binding
[8] = single experiment of a series of 3, read-out: IC50, MmΔIBBIMPα:T-ag-NLS-GFP (Figure 3)
[9] = AlphaScreen, IMPβ 30 nM, IMPα 30 nM, pooled mean ± SEM (n = 3), read-out: IC50, inhibition of PfIMPα:MmIMPβ1 binding
[10] = single experiment of a series of three, read-out: IC50, PfIMPα:MmIMPβ1 (Figure 4)
[11] = AlphaScreen, IMPβ 30 nM, IMPα 30 nM, pooled mean ± SEM (n = 3), read-out: IC50, inhibition of TgIMPα:MmIMPβ1 binding
[12] = single experiment of a series of three, read-out: IC50, TgIMPα:MmIMPβ1 (Figure 4)
[13] = AlphaScreen, IMPβ 30 nM, IMPα 30 nM, pooled mean ± SEM (n = 3), read-out: IC50, inhibition of MmIMPα:MmIMPβ1 binding
[14] = single experiment of a series of three, read-out: IC50, MmIMPα:MmIMPβ1 (Figure 4)
[15] = asexual stages, pooled mean ± SD (n = 3), read-out: IC50, inhibition of growth of P. falciparum parasites in culture

Compound | IC50 (PfIMPα [1]; [3]) [µM] | IC50 (PfIMPα [1]; [4]) [µM] | IC50 (TgIMPα; [5]) [µM] | IC50 (TgIMPα; [6]) [µM] | IC50 (MmΔIBBIMPα; [7]) [µM] | IC50 (MmΔIBBIMPα; [8]) [µM] | IC50 (PfIMPα:MmIMPβ1; [9]) [µM] | IC50 (PfIMPα:MmIMPβ1; [10]) [µM] | IC50 (TgIMPα:MmIMPβ1; [11]) [µM] | IC50 (TgIMPα:MmIMPβ1; [12]) [µM] | IC50 (MmIMPα:MmIMPβ1; [13]) | IC50 (MmIMPα:MmIMPβ1; [14]) [µM] | residual α-helicity of PfIMPα (PfIMPα [2]; 80 µM compound) | IC50 (P. falciparum 3D7 strain; [15]) [µM] | other results
O=C1Nc2ccc(I)cc2C1=Cc1cc(Br)c(O)c(Br)c1 [GW5074, 3-(3,5-dibromo-4-hydroxybenzyliden)-5-iodo-1,3-dihydroindol-2-one] | 6.5 ± 0.4 | 6 | 7.7 ± 1.9 | 5.4 | 4.9 ± 1.4 | 2.2 | 41 ± 1.5 | 39 | 11 ± 1.5 | 13 | ~22 µM and 22 µM | 23 | below 10% | 5.5 ± 0.9 | residual α-helicity of PfIMPα (PfIMPα [2]; 30 µM compound): 30%; IC50 (P. falciparum 3D7 strain; Plasmodium falciparum, 3D7, 72 h, single typical experiment in duplicate, read-out: IC50, P. falciparum growth (Figure 6)): 6.5 µM; IC50 (P. falciparum 3D7 strain; Plasmodium falciparum, 3D7, 72 h, asexual stages, pooled mean ± SD (n = 3), read-out: IC50, inhibition of growth of P. falciparum parasites in culture): ~6 µM
ivermectin | 5 ± 1.3 | 2.4 | 4.9 ± 0.2 | 5.2 | 6.2 ± 0.2 | 6.3 | 1.9 ± 0.2 | 1.5 | 6.9 ± 1.2 | 5.4 | 3.1 ± 0.5 µM | 3.9 | ~20% | 0.7 ± 0.1 | IC50 (TgIMPα; AlphaScreen, IMPα 5 nM, NLS 30 nM, pooled mean ± SEM (n = 3), listed as ivermectin, read-out: IC50, inhibition of TgIMPα:SV40 T-ag NLS binding): 5 µM; IC50 (MmΔIBBIMPα; AlphaScreen, IMPα 5 nM, NLS 30 nM, pooled mean ± SEM (n = 3), listed as ivermectin, read-out: IC50, inhibition of ΔIBBmIMPα:SV40 T-ag NLS binding): 5 to 6 µM; IC50 (PfIMPα:MmIMPβ1; AlphaScreen, IMPβ 30 nM, IMPα 30 nM, pooled mean ± SEM (n = 3), listed as ivermectin, read-out: IC50, inhibition of PfIMPα:MmIMPβ1 binding): 2 to 7 µM; IC50 (TgIMPα:MmIMPβ1; AlphaScreen, IMPβ 30 nM, IMPα 30 nM, pooled mean ± SEM (n = 3), listed as ivermectin, read-out: IC50, inhibition of TgIMPα:MmIMPβ1 binding): 2 to 7 µM; IC50 (MmIMPα:MmIMPβ1; AlphaScreen, IMPβ 30 nM, IMPα 30 nM, pooled mean ± SEM (n = 3), listed as ivermectin, read-out: IC50, inhibition of MmIMPα:MmIMPβ1 binding): ~3 µM; IC50 (P. falciparum 3D7 strain; single typical experiment in duplicate, read-out: IC50, P. falciparum growth (Figure 6)): 1 µM; IC50 (P. falciparum 3D7 strain; asexual stages, pooled mean ± SD (n = 3), listed as ivermectin, read-out: IC50, inhibition of growth of P. falciparum parasites in culture): ~1 µM
